What all share (format): cell-based, human
Data set [1] deals with VSMC. In words: MTT cell viability assay. The following applies: 1-100 nM for 8 hours. The procedure:
Cells are plated onto 24-well plates and treated with or without RvD1 or RvD2 (1, 10, and 100 nM) for 8 hours. MTT viability assay is performed per manufacturer's instructions (TOX1 assay, Sigma).
FIG. 8: Cell viability is not affected by RvD1 or RvD2. Cells were treated with or without RvD1 or RvD2 (1, 10, and 100 nM) for 8 hours.
(Tetrazolium dyes change colour on reduction, which living cells bring about.)

A further data set concerns ICAM-1. Description: TNF-α-stimulated ICAM-1 gene expression in VSMC by qRT-PCR. The note with it: 100 nM; TNF-α 10 ng/ml 18 hours; P<0.01. The procedure: (§1) Cells are plated onto 6-well plates at 100% confluency in DMEM plus 10% FBS and allowed to attached overnight. Cells are then made quiescent by placing in serum-free media for 48-72 hours prior to start of experiments. Cells are treated with or without RvD1 or RvD2 at the indicated concentrations for one hour followed by co-incubation with cytokine (TNF-α 10 ng/ml) for up to 18 hours. In a separate set of experiments to examine the role of G-protein receptors, VSMCs are exposed to TNF-α and RvD2 (10 nM) as described above, in the presence or absence of pertussis toxin (PTX 100 ng/ml). Total RNA from rabbit sample or cells is isolated with PureLink RNA Mini kit (Ambion Life Technologies, Carlsbad, Calif.) with RNase-free DNase treatment according to manufacturer's protocol. One microgram of total RNA (from either VSMC or rabbit tissue) is used to generate cDNA using High Capacity cDNA Reverse Transcription Kit (Applied Biosystems, Foster City, Calif.) for subsequent RT-PCR reactions. Sybrgreen Amplified DNA is detected by incorporation SYBR Green (Qiagen, Germantown, Md.). Dissociation curve analyses are performed to confirm the specificity of the SYBR Green signal. Data is normalized to at least two reference genes. […]
(§2) FIG. 2: RvD1 and RvD2 reduce pro-inflammatory gene expression in VSMC. […] Expression of the cell adhesion molecules VCAM-1 (A) and ICAM-1 (B) was measured by qRT-PCR. […]
(Real-time PCR tracks product formation cycle by cycle.)

For data set [2], the system named is VSMC. Description: VSMC proliferation assay (Alamar Blue) in 10% serum. The following applies: 100 nM; standard growth medium (10% serum); P<0.01. The text has this: Primary cultures of human greater saphenous vein smooth muscle cells (hVSMC) are isolated from saphenous vein discarded at the time of bypass operation in an Institutional Review Board-approved protocol as described by Conte et al. “Regulation of vein graft hyperplasia by survivin, an inhibitor of apoptosis protein.” Arterioscler Thromb Vasc Biol. 2005; 25:2081-2087. VSMCs are maintained in Dulbecco's modified Eagle's medium (DMEM Low Glucose) (HyClone Laboratories Inc, Logan, Utah) containing 10% fetal bovine serum (FBS) (Invitrogen Life Technologies, Grand Island, N.Y.) and used between passages 2-5. […]
Cell proliferation assay is performed as described by Conte et al. Arterioscler Thromb Vasc Biol. 2005; 25:2081-2087. […] Fluorescence measurements (excitation 506 nm, emission 590 nm) are made on media aliquots; a standard curve is generated by correlating emission intensity with viable cell counts using Trypan Blue exclusion.
(§3) FIG. 1: RvD1 and RvD2 attenuate cell adhesion, proliferation, and migration responses of human VSMC in-vitro. […] Results are shown as relative percent inhibition, expressed as a percentage of the maximal adhesion for the agonist (n=6, results are mean±SEM, **P<0.01, *P<0.05, unpaired t-test). […] Results are expressed as percentage change in migration from unstimulated control (no PDGF). […]
(In general: Alamar Blue is a resazurin reagent that responds to reducing activity.)

Data set [3] concerns TNF-α, IL-1β, MCP-1, IL-6, and IL-1α. Description: TNF-α-stimulated inflammatory cytokine gene expression in VSMC by qRT-PCR. The note with it: 0.1 nM or 10 nM, greatest attenuation in IL-1β. The procedure:
as §1, §2

The next data set concerns TNF-α-stimulated VSMC. In words: Static monocyte (U937) adhesion assay, TNF-α-stimulated VSMC (RvD). The note with it: U937 monocytes; TNF-α 10 ng/ml 4 hours; peak inhibition at 10 nM.
From the text: Primary cultures of human greater saphenous vein smooth muscle cells (hVSMC) are isolated from saphenous vein discarded at the time of bypass operation in an Institutional Review Board-approved protocol as described by Conte et al. “Regulation of vein graft hyperplasia by survivin, an inhibitor of apoptosis protein.” Arterioscler Thromb Vasc Biol. 2005; 25:2081-2087. VSMCs are maintained in Dulbecco's modified Eagle's medium (DMEM Low Glucose) (HyClone Laboratories Inc, Logan, Utah) containing 10% fetal bovine serum (FBS) (Invitrogen Life Technologies, Grand Island, N.Y.) and used between passages 2-5. Endothelial cells were maintained in Medium 199 supplemented with EBSS (Hyclone Laboratories, Logan, Utah, USA) and Endothelial Cell Growth Supplement. Cells between passages 3-8 were used for the experiments.
RvD. […] Fluorescence measurements (excitation 494 nm, emission 517 nm) of bound monocytes are made with plate reader (Spectra Max M2, Molecular Devices, LLC, Sunnyvale, Calif.).
as §3

The test system of another data set is VCAM-1. In words: TNF-α-stimulated VCAM-1 gene expression in VSMC by qRT-PCR. The following applies: 100 nM; TNF-α 10 ng/ml 18 hours; P<0.01. As for the experimental part:
as §1, §2

The results in this text go back to patent US10111847B2, “Compounds and methods for modulating vascular injury” (The Regents of the University of California, priority 2012, dated 2018).

For the compound `CC/C=C\C[C@H](O)[C@H](O)/C=C/C=C/C=C\C=C\[C@@H](O)C/C=C\CCC(=O)O` [RvD2, resolvin D2], the “loss of cell viability (MTT cytotoxicity assay)” value in the data set with VSMC [1] is recorded as “did not display significant loss of cell viability”. Further, the “ICAM-1 expression, maximum % reduction” value in the data set with ICAM-1 was 70%. Besides, the “inhibition of VSMC proliferation, maximum effect” value in the data set with VSMC [2] turned out to be 63%. Moreover, the “expression of multiple inflammatory cytokines including TNF-α, IL-1β, MCP-1, IL-6, and IL-1α” value in data set [3] was “broad, significant reduction”. The “maximum % inhibition of monocyte adhesion” value in the data set on TNF-α-stimulated VSMC is 41%. Besides, in the data set with VCAM-1, the “VCAM-1 expression, maximum % reduction” value was determined as 76%.
In the case of `CC/C=C\C[C@H](O)/C=C/C=C\C=C\C=C\[C@@H](O)[C@@H](O)C/C=C\CCC(=O)O` [RvD1, Resolvin D1], the “loss of cell viability (MTT cytotoxicity assay)” value in the data set with VSMC [1] is “did not display significant loss of cell viability”. The “ICAM-1 expression, maximum % reduction” value with ICAM-1 is reported as 63%. In the data set on VSMC [2], the “inhibition of VSMC proliferation, maximum effect” value was 59%. For the same compound, in data set [3], the “expression of multiple inflammatory cytokines including TNF-α, IL-1β, MCP-1, IL-6, and IL-1α” value is “broad, significant reduction”. In the data set on TNF-α-stimulated VSMC, the “maximum % inhibition of monocyte adhesion” value was 36%. In addition, the “VCAM-1 expression, maximum % reduction” value in the data set with VCAM-1 was 69%.
